The test addresses T1, recombinant ENOX2 (tNOX) (Homo sapiens, UniProt Q16206).
T1 sequence (Q16206 1-610): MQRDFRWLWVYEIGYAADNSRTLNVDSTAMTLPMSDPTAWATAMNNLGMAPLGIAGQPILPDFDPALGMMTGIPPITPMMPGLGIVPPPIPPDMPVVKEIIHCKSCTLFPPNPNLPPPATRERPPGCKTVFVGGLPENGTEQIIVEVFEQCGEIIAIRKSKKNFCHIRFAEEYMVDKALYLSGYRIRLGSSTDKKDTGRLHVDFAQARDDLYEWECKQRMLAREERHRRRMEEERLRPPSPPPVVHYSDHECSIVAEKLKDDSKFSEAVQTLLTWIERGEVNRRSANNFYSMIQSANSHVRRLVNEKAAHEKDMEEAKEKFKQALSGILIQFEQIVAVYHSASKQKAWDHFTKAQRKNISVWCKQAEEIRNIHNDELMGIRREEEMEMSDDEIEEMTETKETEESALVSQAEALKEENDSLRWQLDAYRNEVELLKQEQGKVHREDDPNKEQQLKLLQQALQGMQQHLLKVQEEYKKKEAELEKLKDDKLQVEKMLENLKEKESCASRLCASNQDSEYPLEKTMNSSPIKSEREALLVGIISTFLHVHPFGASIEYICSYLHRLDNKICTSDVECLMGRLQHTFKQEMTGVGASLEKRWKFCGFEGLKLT
In words: NADH oxidation, A340. Type of test: biochemical.

We go through two molecules from article PMC7592813 (Oncology Research, 2014).

Like-named read-outs stand apart in the source and are kept apart here.

Consider `Oc1ccc(C2=Cc3ccc(O)cc3OC2)cc1` [phenoxodiol], for which the EC50 amounted to 330 ± 153 nM.

Regarding “2H-1-benzopyran-7-0,1,3-(4-hydroxyphenyl) [ME-143]”, the EC50 (150 µM NADH, 25 mM Tris-MES pH 7.2, 100 µM GSH, 1 mM KCN, 37 °C, inhibition) was roughly 50 nM.

Usually EC50 stands for the midpoint of the concentration-response curve.
